From ChEMBL document CHEMBL1909046, “DrugMatrix in vitro pharmacology data”

What was measured:
[1] = DRUGMATRIX: Nicotinic Acetylcholine radioligand binding (ligand: [125I] Epibatidine); assay type: cell membranes, Membrane; details: imr-32; Not Active = under 50% inhibition at 10 µM
Melanocortin receptor 5 = Melanocortin receptor 5 (Homo sapiens, UniProt P33032); assay type: cell membranes, HEK293, Membrane; note: in other assays of this panel Not Active means under 50% inhibition at 10 µM
Histamine H2 receptor = Histamine H2 receptor (Homo sapiens, UniProt P25021); assay type: cell membranes, CHO-K1, Membrane; details: cho-k1; note: in other assays of this panel Not Active means under 50% inhibition at 10 µM
Histamine H2 receptor, sequence (P25021 whole entry): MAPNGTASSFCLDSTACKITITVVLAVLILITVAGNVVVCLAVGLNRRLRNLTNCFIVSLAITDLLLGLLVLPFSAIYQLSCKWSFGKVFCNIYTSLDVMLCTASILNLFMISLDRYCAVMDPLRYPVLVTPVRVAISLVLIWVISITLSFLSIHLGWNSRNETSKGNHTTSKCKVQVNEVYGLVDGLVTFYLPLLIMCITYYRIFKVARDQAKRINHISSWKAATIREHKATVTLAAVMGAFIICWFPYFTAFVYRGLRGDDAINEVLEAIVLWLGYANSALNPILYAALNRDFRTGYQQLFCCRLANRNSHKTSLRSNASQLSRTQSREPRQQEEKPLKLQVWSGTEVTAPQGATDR

Cytochrome P450 2A6 = molecular target: T1, Cytochrome P450 2A6 (Homo sapiens, UniProt P11509); details: bti-tn-5b1-4; note: in other assays of this panel Not Active means under 50% inhibition at 10 µM
T1 sequence (P11509 whole entry): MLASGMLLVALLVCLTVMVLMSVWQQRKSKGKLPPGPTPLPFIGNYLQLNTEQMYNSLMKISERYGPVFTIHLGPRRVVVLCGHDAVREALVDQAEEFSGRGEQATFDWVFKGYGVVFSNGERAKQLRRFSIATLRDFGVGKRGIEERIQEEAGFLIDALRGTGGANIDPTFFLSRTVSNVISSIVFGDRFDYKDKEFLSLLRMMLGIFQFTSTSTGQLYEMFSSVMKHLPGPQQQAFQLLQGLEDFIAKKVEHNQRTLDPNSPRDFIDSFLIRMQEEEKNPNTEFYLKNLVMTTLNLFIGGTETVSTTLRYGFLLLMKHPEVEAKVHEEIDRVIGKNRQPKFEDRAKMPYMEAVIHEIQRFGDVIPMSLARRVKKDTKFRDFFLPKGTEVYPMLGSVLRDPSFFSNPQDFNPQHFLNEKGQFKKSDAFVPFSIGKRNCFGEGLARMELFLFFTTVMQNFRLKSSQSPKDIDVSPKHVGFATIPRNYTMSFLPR

Insulin receptor = Insulin receptor (Rattus norvegicus, UniProt P15127); assay type: cell membranes, Wistar, Liver, Membrane; note: in other assays of this panel Not Active means under 50% inhibition at 10 µM
Insulin receptor, sequence (P15127 27-759 limits assumed): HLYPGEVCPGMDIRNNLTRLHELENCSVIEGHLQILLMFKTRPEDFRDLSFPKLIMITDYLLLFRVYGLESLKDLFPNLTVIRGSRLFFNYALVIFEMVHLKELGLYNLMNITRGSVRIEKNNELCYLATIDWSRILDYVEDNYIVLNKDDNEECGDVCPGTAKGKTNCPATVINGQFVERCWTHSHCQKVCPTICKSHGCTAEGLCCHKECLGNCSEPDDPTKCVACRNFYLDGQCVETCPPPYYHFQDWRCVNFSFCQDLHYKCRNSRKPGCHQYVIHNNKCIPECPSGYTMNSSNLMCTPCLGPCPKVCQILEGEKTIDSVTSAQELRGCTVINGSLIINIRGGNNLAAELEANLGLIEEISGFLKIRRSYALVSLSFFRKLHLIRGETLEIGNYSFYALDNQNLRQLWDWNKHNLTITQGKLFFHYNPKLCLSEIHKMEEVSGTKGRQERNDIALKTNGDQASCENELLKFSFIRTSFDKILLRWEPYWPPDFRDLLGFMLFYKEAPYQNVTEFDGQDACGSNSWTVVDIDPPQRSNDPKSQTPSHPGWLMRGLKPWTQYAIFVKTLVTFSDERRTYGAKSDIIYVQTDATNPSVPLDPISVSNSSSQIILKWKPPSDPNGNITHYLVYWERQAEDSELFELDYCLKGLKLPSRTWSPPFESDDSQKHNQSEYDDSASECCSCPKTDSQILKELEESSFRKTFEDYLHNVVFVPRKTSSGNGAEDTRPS
Insulin receptor, sequence (P15127 764-1383 limits assumed): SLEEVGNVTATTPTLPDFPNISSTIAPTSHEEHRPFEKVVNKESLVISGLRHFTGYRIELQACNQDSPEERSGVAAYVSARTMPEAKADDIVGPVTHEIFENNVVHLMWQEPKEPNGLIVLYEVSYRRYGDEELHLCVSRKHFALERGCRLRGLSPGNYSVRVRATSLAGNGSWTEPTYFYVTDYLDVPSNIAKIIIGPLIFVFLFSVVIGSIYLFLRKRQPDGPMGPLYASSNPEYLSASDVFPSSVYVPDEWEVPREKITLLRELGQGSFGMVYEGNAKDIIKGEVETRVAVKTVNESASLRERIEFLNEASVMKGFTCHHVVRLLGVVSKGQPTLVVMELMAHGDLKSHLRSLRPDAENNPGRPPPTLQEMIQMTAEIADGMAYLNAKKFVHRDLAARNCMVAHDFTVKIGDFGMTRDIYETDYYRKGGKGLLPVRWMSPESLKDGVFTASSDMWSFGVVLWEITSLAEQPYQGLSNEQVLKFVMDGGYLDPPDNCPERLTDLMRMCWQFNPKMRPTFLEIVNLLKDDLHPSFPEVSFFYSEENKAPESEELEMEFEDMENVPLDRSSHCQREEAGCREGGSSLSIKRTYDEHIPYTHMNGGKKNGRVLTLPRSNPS

[2] = molecular target: T2, 3-hydroxy-3-methylglutaryl-coenzyme A reductase (Homo sapiens, UniProt P04035); parameters: species or system Escherichia coli
T2 sequence (P04035 whole entry): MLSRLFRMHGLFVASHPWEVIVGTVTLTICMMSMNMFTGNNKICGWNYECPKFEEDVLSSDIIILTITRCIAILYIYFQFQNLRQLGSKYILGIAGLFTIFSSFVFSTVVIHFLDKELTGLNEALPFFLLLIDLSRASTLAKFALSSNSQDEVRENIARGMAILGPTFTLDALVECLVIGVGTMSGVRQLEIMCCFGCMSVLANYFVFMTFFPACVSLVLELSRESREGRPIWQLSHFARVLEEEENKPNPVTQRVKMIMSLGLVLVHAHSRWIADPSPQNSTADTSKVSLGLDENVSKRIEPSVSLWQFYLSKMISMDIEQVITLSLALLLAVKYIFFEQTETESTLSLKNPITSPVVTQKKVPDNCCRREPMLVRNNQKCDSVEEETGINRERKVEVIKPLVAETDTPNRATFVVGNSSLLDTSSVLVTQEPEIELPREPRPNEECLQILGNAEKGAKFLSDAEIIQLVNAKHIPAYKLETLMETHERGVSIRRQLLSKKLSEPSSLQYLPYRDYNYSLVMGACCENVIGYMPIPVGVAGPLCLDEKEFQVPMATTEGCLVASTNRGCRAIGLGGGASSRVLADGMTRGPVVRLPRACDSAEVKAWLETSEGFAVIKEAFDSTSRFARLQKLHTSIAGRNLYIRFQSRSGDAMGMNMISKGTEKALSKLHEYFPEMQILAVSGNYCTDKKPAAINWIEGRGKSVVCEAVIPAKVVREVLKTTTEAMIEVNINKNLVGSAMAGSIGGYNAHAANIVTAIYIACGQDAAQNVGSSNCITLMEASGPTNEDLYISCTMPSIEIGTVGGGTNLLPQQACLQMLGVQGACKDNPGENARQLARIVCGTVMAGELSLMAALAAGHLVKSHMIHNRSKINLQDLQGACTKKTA

Melanocortin receptor 5, sequence (P33032 whole entry): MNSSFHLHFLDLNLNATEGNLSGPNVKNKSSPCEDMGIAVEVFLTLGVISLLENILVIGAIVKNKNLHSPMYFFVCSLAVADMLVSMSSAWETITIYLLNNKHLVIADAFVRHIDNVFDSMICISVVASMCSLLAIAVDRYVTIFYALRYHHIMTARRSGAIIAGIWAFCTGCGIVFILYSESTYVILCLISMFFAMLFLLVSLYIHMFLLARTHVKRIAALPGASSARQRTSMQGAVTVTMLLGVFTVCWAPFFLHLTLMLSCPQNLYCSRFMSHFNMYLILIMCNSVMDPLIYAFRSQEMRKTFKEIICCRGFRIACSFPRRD

For `Cn1c(=O)c2c(ncn2CC(O)CO)n(C)c1=O` (centres undefined) [DYPHYLLINE], the IC50 [1] was “Not Active”, the Ki [1] was “Not Active” and the IC50 (Melanocortin receptor 5; hek293) was “Not Active”. For the same compound, the IC50 (Histamine H2 receptor) was “Not Active”, the IC50 (Cytochrome P450 2A6) was “Not Active” and the Ki (Cytochrome P450 2A6) was “Not Active”. The IC50 (Insulin receptor) was “Not Active” and the IC50 [2] was “Not Active”.
For `O=C(O)c1cccnc1Nc1cccc(C(F)(F)F)c1` [NIFLUMIC ACID], the IC50 [1] was “Not Active”, the Ki [1] was “Not Active” and the IC50 (Melanocortin receptor 5; hek293) was “Not Active”. The IC50 (Histamine H2 receptor) was “Not Active”, the IC50 (Cytochrome P450 2A6) was “Not Active” and the Ki (Cytochrome P450 2A6) was “Not Active”. For the same compound, the IC50 (Insulin receptor) was “Not Active” and the IC50 [2] was “Not Active”.
With `CC(C)c1cccc(C(C)C)c1O` [PROPOFOL] the IC50 [1] was “Not Active”, the Ki [1] was “Not Active” and the IC50 (Melanocortin receptor 5; hek293) was “Not Active”. For the same compound, the IC50 (Histamine H2 receptor) was “Not Active”, the IC50 (Insulin receptor) was “Not Active” and the IC50 [2] was “Not Active”.
For `COC(=O)Nc1nc2ccc(C(=O)c3cccs3)cc2[nH]1` [NOCODAZOLE], the IC50 [1] was “Not Active”, the Ki [1] was “Not Active” and the IC50 (Melanocortin receptor 5; hek293) was “Not Active”. For the same compound, the IC50 (Histamine H2 receptor) was “Not Active”, the IC50 (Cytochrome P450 2A6) was “Not Active” and the Ki (Cytochrome P450 2A6) was “Not Active”. For the same compound, the IC50 (Insulin receptor) was “Not Active” and the IC50 [2] was “Not Active”.
For `N=C(N)NC(=O)Cc1c(Cl)cccc1Cl` [GUANFACINE], the IC50 [1] was “Not Active”, the Ki [1] was “Not Active” and the IC50 (Melanocortin receptor 5; hek293) was “Not Active”. The IC50 (Histamine H2 receptor) was “Not Active”, the IC50 (Cytochrome P450 2A6) was “Not Active” and the Ki (Cytochrome P450 2A6) was “Not Active”. The IC50 (Insulin receptor) was “Not Active” and the IC50 [2] was “Not Active”.
For `CC(C)NCC(O)COc1cccc2[nH]ccc12` (centres undefined) [PINDOLOL], the IC50 [1] was “Not Active”, the Ki [1] was “Not Active” and the IC50 (Melanocortin receptor 5; hek293) was “Not Active”. The IC50 (Histamine H2 receptor) was “Not Active”, the IC50 (Insulin receptor) was “Not Active” and the IC50 [2] was “Not Active”.
In the case of `CC(=O)[C@@]1(O)CC[C@H]2[C@@H]3CCC4=CC(=O)CC[C@]4(C)[C@H]3CC[C@@]21C` [HYDROXYPROGESTERONE], the IC50 [1] is reported as “Not Active”, the Ki [1] is reported as “Not Active” and the IC50 (Melanocortin receptor 5; hek293) is reported as “Not Active”. For the same compound, the IC50 (Histamine H2 receptor) was “Not Active”, the IC50 (Insulin receptor) was “Not Active” and the IC50 [2] was “Not Active”.
With `CC(=O)O[C@H]1C(=O)[C@@]2(C)[C@H]([C@H](OC(=O)c3ccccc3)[C@]3(O)C[C@H](OC(=O)[C@H](O)[C@@H](NC(=O)c4ccccc4)c4ccccc4)C(C)=C1C3(C)C)[C@]1(OC(C)=O)CO[C@@H]1C[C@@H]2O` [PACLITAXEL] the IC50 [1] was “Not Active”, the Ki [1] was “Not Active” and the IC50 (Melanocortin receptor 5; read-out: IC50) was 17.1 µM. The Ki (Melanocortin receptor 5; read-out: Ki) was 16.1 µM, the IC50 (Histamine H2 receptor) was “Not Active” and the IC50 (Cytochrome P450 2A6) was “Not Active”. The Ki (Cytochrome P450 2A6) was “Not Active”, the IC50 (Insulin receptor) was “Not Active” and the IC50 [2] was “Not Active”.
For `CCCOc1ccc(C(=O)OCCN(CC)CC)cc1N` [PROPARACAINE], the IC50 [1] was “Not Active”, the Ki [1] was “Not Active” and the IC50 (Melanocortin receptor 5; hek293) was “Not Active”. The IC50 (Histamine H2 receptor) was “Not Active”, the IC50 (Cytochrome P450 2A6) was “Not Active” and the Ki (Cytochrome P450 2A6) was “Not Active”. For the same compound, the IC50 (Insulin receptor) was “Not Active” and the IC50 [2] was “Not Active”.
For `O=C(N/N=C/c1ccc([N+](=O)[O-])o1)c1cc([N+](=O)[O-])cc([N+](=O)[O-])c1O` [NIFURSOL], the IC50 [1] was “Not Active”, the Ki [1] was “Not Active” and the IC50 (Melanocortin receptor 5; hek293) was “Not Active”. For the same compound, the IC50 (Histamine H2 receptor) was “Not Active”, the IC50 (Cytochrome P450 2A6) was “Not Active” and the Ki (Cytochrome P450 2A6) was “Not Active”. For the same compound, the IC50 (Insulin receptor) was “Not Active” and the IC50 [2] was “Not Active”.
For `CC(=O)Oc1ccc(C(c2ccc(OC(C)=O)cc2)c2ccccn2)cc1` [BISACODYL], the IC50 [1] was “Not Active”, the Ki [1] was “Not Active” and the IC50 (Melanocortin receptor 5; hek293) was “Not Active”. The IC50 (Histamine H2 receptor) was “Not Active”, the IC50 (Cytochrome P450 2A6) was “Not Active” and the Ki (Cytochrome P450 2A6) was “Not Active”. For the same compound, the IC50 (Insulin receptor) was “Not Active” and the IC50 [2] was “Not Active”.
For `CN(C)[C@@H]1C(O)=C(C(N)=O)C(=O)[C@@]2(O)C(O)=C3C(=O)c4c(O)ccc(Cl)c4[C@@](C)(O)[C@H]3C[C@@H]12` [CHLORTETRACYCLINE], the IC50 [1] was “Not Active”, the Ki [1] was “Not Active” and the IC50 (Melanocortin receptor 5; hek293) was “Not Active”. The IC50 (Histamine H2 receptor) was “Not Active”, the IC50 (Cytochrome P450 2A6) was “Not Active” and the Ki (Cytochrome P450 2A6) was “Not Active”. For the same compound, the IC50 (Insulin receptor) was “Not Active” and the IC50 [2] was “Not Active”.
For `Nc1ccn([C@@H]2O[C@H](CO)[C@@H](O)[C@@H]2O)c(=O)n1` [CYTARABINE], the IC50 [1] was “Not Active”, the Ki [1] was “Not Active” and the IC50 (Melanocortin receptor 5; hek293) was “Not Active”. For the same compound, the IC50 (Histamine H2 receptor) was “Not Active”, the IC50 (Cytochrome P450 2A6) was “Not Active” and the Ki (Cytochrome P450 2A6) was “Not Active”. The IC50 (Insulin receptor) was “Not Active” and the IC50 [2] was “Not Active”.
